According to PMC4775997, “Imidazopyridazine Inhibitors of Plasmodium falciparum Calcium-Dependent Protein Kinase 1 Also Target Cyclic GMP-Dependent Protein Kinase and Heat Shock Protein 90 To Kill the Parasite at Different Stages of Intracellular Development” (Antimicrobial Agents and Chemotherapy, 2016):
Read-outs that look alike come from different tables or passages of the source.

Experiments:
P. falciparum 3D7 [1] = assay: SYBR green I growth assay, wild-type parasites; format: cell-based, Plasmodium falciparum; conditions: Plasmodium falciparum
PfPKG = biological target: T1, PfPKG (Plasmodium falciparum, UniProt Q8I719); assay: Microfluidic fluorescent shift assay of cGMP-dependent protein kinase activity; format: biochemical
T1 construct: plasmids (pTrcHisC) encoding full-length PfPKG and PfPKG T618Q with N-terminal His tags; His tag (N); made in house; host or cells: E. coli Rosetta2(DE3)

PfPKG T618Q = biological target: T2, PfPKG T618Q (Plasmodium falciparum, UniProt Q8I719, T618Q); assay: biochemical; format: biochemical
T2 construct: plasmids (pTrcHisC) encoding full-length PfPKG and PfPKG T618Q with N-terminal His tags; His tag (N); made in house; host or cells: E. coli Rosetta2(DE3)
T2 sequence (Q8I719 whole entry T618Q): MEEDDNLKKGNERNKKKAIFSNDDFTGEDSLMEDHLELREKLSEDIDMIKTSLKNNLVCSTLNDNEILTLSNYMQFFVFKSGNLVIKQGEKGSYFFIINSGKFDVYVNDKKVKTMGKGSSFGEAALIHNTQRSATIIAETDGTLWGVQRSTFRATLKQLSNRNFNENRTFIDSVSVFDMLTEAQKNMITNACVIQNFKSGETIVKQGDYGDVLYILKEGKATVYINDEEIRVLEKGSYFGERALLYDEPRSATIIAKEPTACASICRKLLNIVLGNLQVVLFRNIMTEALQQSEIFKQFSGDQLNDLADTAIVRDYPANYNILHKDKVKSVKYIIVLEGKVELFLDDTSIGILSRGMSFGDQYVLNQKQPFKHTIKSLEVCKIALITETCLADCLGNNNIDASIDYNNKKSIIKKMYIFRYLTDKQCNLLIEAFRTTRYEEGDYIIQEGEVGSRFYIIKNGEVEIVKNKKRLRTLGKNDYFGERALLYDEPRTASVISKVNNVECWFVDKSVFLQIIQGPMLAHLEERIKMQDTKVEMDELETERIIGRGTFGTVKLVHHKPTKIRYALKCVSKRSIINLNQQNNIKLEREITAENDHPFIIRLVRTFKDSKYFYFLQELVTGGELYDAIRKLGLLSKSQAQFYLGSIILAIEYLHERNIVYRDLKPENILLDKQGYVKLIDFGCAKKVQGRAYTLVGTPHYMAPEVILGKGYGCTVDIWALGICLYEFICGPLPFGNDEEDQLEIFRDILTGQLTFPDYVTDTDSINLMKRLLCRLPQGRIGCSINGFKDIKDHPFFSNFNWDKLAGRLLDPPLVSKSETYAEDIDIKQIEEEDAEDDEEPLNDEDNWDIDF

3D7 PKG T618Q = assay: microbe, parasite or virus in culture; format: cell-based, Plasmodium falciparum; conditions: Plasmodium falciparum, 3D7, 96 h, read-out: Parasite inhibition EC50, 3D7 PKG T618Q
PfHSP90 = PfHSP90 (Plasmodium falciparum, UniProt Q8IC05); assay: Tryptophan fluorescence binding, full-length PfHSP90
PfHSP90, sequence (Q8IC05 entry or part of it): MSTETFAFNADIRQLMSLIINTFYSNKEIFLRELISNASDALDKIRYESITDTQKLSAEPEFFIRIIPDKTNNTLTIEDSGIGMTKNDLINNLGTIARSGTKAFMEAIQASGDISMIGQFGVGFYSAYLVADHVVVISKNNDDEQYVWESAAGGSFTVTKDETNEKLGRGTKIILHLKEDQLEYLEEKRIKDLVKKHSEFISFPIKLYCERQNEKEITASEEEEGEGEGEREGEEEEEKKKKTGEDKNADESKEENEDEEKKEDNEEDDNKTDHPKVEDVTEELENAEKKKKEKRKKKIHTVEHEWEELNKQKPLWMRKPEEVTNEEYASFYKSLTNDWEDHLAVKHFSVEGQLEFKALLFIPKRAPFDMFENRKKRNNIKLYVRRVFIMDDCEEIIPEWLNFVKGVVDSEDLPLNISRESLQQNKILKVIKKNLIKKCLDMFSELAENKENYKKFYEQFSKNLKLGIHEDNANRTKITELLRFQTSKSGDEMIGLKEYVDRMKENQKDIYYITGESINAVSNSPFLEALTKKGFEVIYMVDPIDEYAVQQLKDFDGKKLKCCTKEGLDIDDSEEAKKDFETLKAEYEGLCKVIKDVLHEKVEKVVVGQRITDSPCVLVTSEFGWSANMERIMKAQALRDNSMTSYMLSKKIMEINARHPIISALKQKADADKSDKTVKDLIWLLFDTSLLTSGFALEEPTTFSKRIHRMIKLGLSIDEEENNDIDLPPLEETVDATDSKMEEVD
Experimental: (§1) The PCR product was cloned into pRSET-A (Life Technologies) between the BamHI and XhoI sites. Positive clones were confirmed by restriction digestion and sequencing. The clone was transformed into Escherichia coli Rosetta(pLysS) cells, and protein was expressed by induction with 0.1 mM isopropyl β-D-1-thiogalactopyranoside (IPTG) at 37°C for 2 h. PfHSP90 proteins were purified using Ni-nitrilotriacetic acid (NTA) affinity chromatography (Qiagen) as described in the manufacturer's protocol.
Tryptophan fluorescence analysis was performed using a PerkinElmer LS55 luminescence spectrometer. […] The binding buffer used for the reaction contained 50 mM Tris-HCl, pH 7.4, and 1 mM EDTA. Samples were excited at 280 nm, and tryptophan fluorescence measurements were carried out by scanning the emission spectrum in the wavelength range 300 to 400 nm. A maximum wavelength (λmax) of 346 nm was selected for all the calculations. The slit widths of excitation and emission were set at 2.5 and 5 nm, respectively. The difference in fluorescence intensity between protein alone and protein with various concentrations of 17-AAG or compound D was calculated and plotted against the different concentrations of the respective ligand used. The resultant hyperbolic curve was analyzed with GraphPad Prism software, using nonlinear regression analysis with single-site-specific binding as described previously ([32]).

PfHSP90-NTD = PfHSP90-NTD (Plasmodium falciparum, UniProt Q8IC05); assay: Tryptophan fluorescence binding, PfHSP90 N-terminal domain
PfHSP90-NTD, sequence (Q8IC05 entry or part of it): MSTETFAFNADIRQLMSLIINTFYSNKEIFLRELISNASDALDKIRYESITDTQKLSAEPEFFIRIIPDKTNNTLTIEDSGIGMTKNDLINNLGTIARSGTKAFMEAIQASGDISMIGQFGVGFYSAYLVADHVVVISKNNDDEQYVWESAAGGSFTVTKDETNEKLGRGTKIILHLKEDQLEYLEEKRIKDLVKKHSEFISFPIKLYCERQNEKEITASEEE
Description: PfCDPK1 and PfCDPK1 T145G proteins were produced using methods described elsewhere ([23]). The PfHSP90 N-terminal domain (NTD) comprises the first 223 amino acids of PfHSP90. This region was amplified from the full-length PfHSP90-pRSET-A construct ([32]) using the following primers: primer 7, […]; primer 8, […].
as §1, with “PfHSP90 proteins were purified using Ni-nitrilotriacetic acid (NTA) affinity chromatography (Qiagen) as described in the manufacturer's protocol.” left out
Tryptophan fluorescence analysis was performed using a PerkinElmer LS55 luminescence spectrometer. […] Samples were excited at 280 nm, and tryptophan fluorescence measurements were carried out by scanning the emission spectrum in the wavelength range 300 to 400 nm. […] The difference in fluorescence intensity between protein alone and protein with various concentrations of 17-AAG or compound D was calculated and plotted against the different concentrations of the respective ligand used. The resultant hyperbolic curve was analyzed with GraphPad Prism software, using nonlinear regression analysis with single-site-specific binding as described previously ([32]).

trophozoite cell lysate = assay: Affinity purification of targets of biotinylated compound D, LC-MS/MS; format: binding, Plasmodium falciparum; conditions: biotin linked to R1 group of compound D, streptavidin-agarose
Experimental: A total of 200 μl of high-capacity streptavidin agarose (Thermo Scientific) was resuspended in 1 ml of 250 μg/ml biotinylated compound D solution or a DMSO control. After incubation with mixing for 1 h at room temperature, unbound compound was removed by extensive washing with phosphate-buffered saline (PBS). The resin was incubated with trophozoite lysate containing 2 mg of protein in a total volume of 1.5 ml overnight at 4°C. The lysate was prepared by resuspending trophozoites in 20 mM Tris-HCl, pH 8.0, 10 mM MgCl2, 250 mM NaCl, 0.5 mM tris(2-carboxyethyl)phosphine (TCEP), 1× protein phosphatase inhibitor (Sigma-Aldrich), 1× complete protease inhibitors (Roche), and 0.1% Triton X-100 (Sigma-Aldrich). Insoluble proteins were removed by centrifugation at 15,000 × g for 20 min, and protein was quantitated using a detergent-compatible (DC) protein assay (Bio-Rad). […]
Proteins were run 4 mm into a 10% NuPAGE Bis-Tris gel (Life Technologies) and then excised using a clean scalpel blade. […] The resulting digests were analyzed by liquid chromatography-tandem mass spectrometry (LC-MS/MS) using an Ultimate 3000 nanoRSLC high-performance liquid chromatograph (HPLC), equipped with a 50-cm by 75-μm Acclaim Pepmap C18 column, coupled to a linear trap quadrupole (LTQ) Orbitrap Velos Pro equipped with a Nanoflex electrospray source (all Thermo Scientific). […]

P. falciparum 3D7 [2] = assay: Microscopic examination of Giemsa-stained smears (stage of action)
CDPK1 T145G = biological target: T3, CDPK1 T145G (Plasmodium falciparum, UniProt P62344, T145G); assay: ParM ADP biosensor assay, CDPK1 T145G; format: biochemical
T3 construct: PfCDPK1 and PfCDPK1 T145G proteins were produced using methods described elsewhere; made in house
T3 sequence (P62344 whole entry T145G): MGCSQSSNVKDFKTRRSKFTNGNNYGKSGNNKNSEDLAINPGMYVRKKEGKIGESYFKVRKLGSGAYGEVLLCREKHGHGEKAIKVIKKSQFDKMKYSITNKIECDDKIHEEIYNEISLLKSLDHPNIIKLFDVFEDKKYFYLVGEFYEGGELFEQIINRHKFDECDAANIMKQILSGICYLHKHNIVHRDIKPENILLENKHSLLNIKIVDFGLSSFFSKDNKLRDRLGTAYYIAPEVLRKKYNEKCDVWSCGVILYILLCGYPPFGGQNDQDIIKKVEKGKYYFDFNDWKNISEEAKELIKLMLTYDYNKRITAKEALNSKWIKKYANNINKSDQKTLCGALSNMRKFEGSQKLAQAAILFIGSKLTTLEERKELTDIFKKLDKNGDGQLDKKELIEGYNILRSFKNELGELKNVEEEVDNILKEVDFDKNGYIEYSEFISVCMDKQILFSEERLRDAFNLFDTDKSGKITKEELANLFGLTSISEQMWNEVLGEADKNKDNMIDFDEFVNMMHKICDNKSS

3D7 CDPK1 T145T-HA = assay: SYBR green assay, 3D7 CDPK1 T145T-HA line; format: cell-based; conditions: Plasmodium falciparum, 3D7, read-out: EC50, 3D7 CDPK1 T145T-HA
Experimental: (§2) Aliquots of 100 μl of P. falciparum cultures 24 h after erythrocyte invasion were transferred into 96-well culture dishes. Cells were incubated with inhibitors for 48 or 96 h (starting parasitemias were 0.3% and 0.03%, respectively). All drug treatments were carried out in duplicate at a final dimethyl sulfoxide (DMSO) concentration of 0.05%. After incubation, a modification of a previously described SYBR green assay was performed ([27]). Cells were lysed by the addition of 25 μl of buffer (20 mM Tris-HCl, pH 8.0, 2 mM EDTA, pH 8.0, 1.6% Triton X-100, 0.16% saponin, 10× SYBR green I [Life Technologies]). After incubation in the dark for 2 h, fluorescence of the samples was determined using a FLUOStar Omega plate reader (BMG Labtech) with excitation and emission filters of 485 nm and 520 nm, respectively. EC50s were calculated from a four-parameter logistical fit of the data using Prism software (GraphPad Software, Inc.).
(§3) Parasites expressing CDPK1 T145G and CDPK1 T145T were generated as described previously ([28]). Briefly, a region of homology to facilitate integration of the plasmid via single-crossover homologous recombination was amplified from P. falciparum 3D7 genomic DNA at 194 bp upstream of the ATG to bp 435 of the open reading frame using primers 1 and 2 for the wild-type (WT) version and primers 1 and 3 for the glycine version. […]

3D7 CDPK1 T145G-HA = assay: SYBR green assay, 3D7 CDPK1 T145G-HA line; format: cell-based; conditions: Plasmodium falciparum, 3D7, read-out: EC50, 3D7 CDPK1 T145G-HA
Experimental: as §2, §3

WT CDPK1 = WT CDPK1 (Plasmodium falciparum, UniProt P62344); assay: biochemical
WT CDPK1, sequence (P62344 whole entry): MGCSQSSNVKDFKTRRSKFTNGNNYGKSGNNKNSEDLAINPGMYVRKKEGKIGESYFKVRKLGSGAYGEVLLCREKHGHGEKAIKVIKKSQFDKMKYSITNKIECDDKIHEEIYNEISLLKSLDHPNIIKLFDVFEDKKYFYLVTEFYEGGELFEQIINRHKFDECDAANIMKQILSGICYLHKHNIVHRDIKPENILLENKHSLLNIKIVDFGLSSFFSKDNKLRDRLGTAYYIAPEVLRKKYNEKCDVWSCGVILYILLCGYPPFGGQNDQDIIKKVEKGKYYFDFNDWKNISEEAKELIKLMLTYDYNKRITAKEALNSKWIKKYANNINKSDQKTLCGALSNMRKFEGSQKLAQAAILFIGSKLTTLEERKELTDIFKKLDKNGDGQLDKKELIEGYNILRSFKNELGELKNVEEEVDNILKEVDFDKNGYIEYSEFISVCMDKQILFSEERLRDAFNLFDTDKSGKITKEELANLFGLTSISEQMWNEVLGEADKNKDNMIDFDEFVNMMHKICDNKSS

Compound	EC50 (P. falciparum 3D7 [1]; 3D7, 48 h, Table S1, single experiment with duplicate samples, or mean of triplicate experiments (SD), read-out: EC50 48 hours)	EC50 (P. falciparum 3D7 [1]; 3D7, 96 h, Table S1, single experiment with duplicate samples, or mean of triplicate experiments (SD), read-out: EC50 96 hours)	EC50 (P. falciparum 3D7 [1]; 3D7, SYBR green I, 48 h incubation, mean of three independent experiments (SD), read-out: EC50 after treatment for 48 h)	EC50 (P. falciparum 3D7 [1]; 3D7, SYBR green I, 96 h incubation, mean of three independent experiments (SD), read-out: EC50 after treatment for 96 h)	EC50 (P. falciparum 3D7 [1]; 3D7, Table 2, SYBR green I, 96 h, single experiment, or mean (SD) of duplicate assays, read-out: Parasite inhibition EC50, 3D7)	IC50 (PfPKG)	IC50 (PfPKG T618Q)	EC50 (3D7 PKG T618Q)	Kd (PfHSP90)	Kd (PfHSP90-NTD)	Significant hit identified by LC-MS/MS (trophozoite cell lysate)	Stage of action (before or after DNA synthesis) (P. falciparum 3D7 [2]; Table S1, ring-stage parasites, 10x EC50 for 48 h)	Developmental arrest seen in smears (P. falciparum 3D7 [2]; parasites about 21 h after invasion, 48 h at 10 times the EC50 determined by FACS (compound C 0.3 μM, compound D 4 μM))	Stage of action (P. falciparum 3D7 [2]; ring stage parasites treated with 10 times the 96-h EC50 for 48 h)	IC50 (CDPK1 T145G)	Increase in sensitivity of CDPK1 T145G over wild-type enzyme (CDPK1 T145G; ratio of IC50s)	EC50 (3D7 CDPK1 T145T-HA)	EC50 (3D7 CDPK1 T145G-HA)	IC50 (WT CDPK1)
CC(C)CCNc1ccc(-c2cnc3ccc(NC4CCN(C)CC4)nn23)cn1 [Compound 7]	360 nM	310 nM	355 nM	311 nM	427 nM	484 nM	15500 nM	477 nM	6170 nM	10700 nM	HSP90	trophozoite	failed to develop beyond late rings/early trophozoites	Trophozoite					
CC(C)(C)n1nc(-c2cccc3ccccc23)c2c(N)ncnc21 [NA-PP1, 1-(1,1-dimethylethyl)-3-(1-naphthalenyl)-1H-pyrazolo[3,4-d]pyrimidin-4-amine]															150 nM	41 fold	14300 nM	15600 nM	6010 nM
